Consider ten compounds from ChEMBL document CHEMBL1201862, “PubChem BioAssay data set” (2004).

Some test systems named below: M14; U-251; SR; 786-0; BT-549; COLO 205; PC-3; HL-60; RPMI-8226; LOX IMVI; HCC 2998; Malme-3M; OVCAR-5; NCI-H23; T47D; OVCAR-4; NCI-H226; Hs-578T; A498; SNB-75.
Test in all cases: growth of human tumour cells (NCI), 48 h

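Values below derive from 48-hour exposures of cells grown in 96-well plates, with endpoints linearly interpolated between the two concentrations bracketing the appropriate inhibition level. Here, GI50 denotes the concentration required for 50% inhibition of growth.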 Active and inactive are the calls of the source. No stated cut-off is given here; in the data, active = GI50 up to about 1.1 µM and inactive = higher. Some results are limits rather than exact numbers.

With `COc1nncc2[nH]c(-c3ccccc3)cc12`, the GI50 was 86.7 µM (inactive) in the experiment on M14; 49 µM (inactive) in the experiment on U-251; 37.5 µM (inactive) in the experiment on SR; 70 µM (inactive) in the experiment on 786-0; 40.5 µM (inactive) with BT-549; > 100 µM (inactive) in the experiment with COLO 205. The GI50 in the experiment with PC-3 is 44.7 µM (inactive); with HL-60 it was 30.9 µM (inactive); in the experiment with RPMI-8226 it was 46.9 µM (inactive); with LOX IMVI, 65 µM (inactive); with HCC 2998, > 100 µM (inactive); in the experiment with Malme-3M, > 100 µM (inactive). For the same compound, the GI50 in the experiment on OVCAR-5 was > 100 µM (inactive); with NCI-H23 it was > 100 µM (inactive); in the experiment with T47D it was 40.9 µM (inactive); with OVCAR-4, 93.5 µM (inactive); in the experiment with NCI-H226 it was 80.9 µM (inactive); in the experiment on Hs-578T, 44 µM (inactive). Further, the GI50 in the experiment with A498 was 22.3 µM (inactive); in the experiment on SNB-75, 58.1 µM (inactive).

For the compound `ClC1(c2ccccc2)c2ccc(Br)cc2-c2cc(Br)ccc21`, the GI50 was 14.2 µM (inactive) in the experiment on M14; 17.6 µM (inactive) in the experiment with U-251; 32.7 µM (inactive) in the experiment on SR; 16.6 µM (inactive) in the experiment with 786-0; 17.2 µM (inactive) with BT-549; 17.7 µM (inactive) in the experiment on COLO 205. The GI50 with PC-3 is 17.4 µM (inactive); in the experiment on HL-60 it was 19.3 µM (inactive); in the experiment with RPMI-8226, 28.7 µM (inactive); in the experiment on LOX IMVI it was 17.8 µM (inactive); in the experiment on HCC 2998, 19.7 µM (inactive); in the experiment with Malme-3M it was 17 µM (inactive). Also, the GI50 in the experiment with OVCAR-5 was 17.3 µM (inactive); with NCI-H23, 15 µM (inactive); in the experiment on T47D, 19.7 µM (inactive); with OVCAR-4 it was 14.1 µM (inactive); with NCI-H226 it was 17.4 µM (inactive); in the experiment with Hs-578T, 19.9 µM (inactive). The GI50 in the experiment with A498 is 18.8 µM (inactive).

In the case of `Oc1ccc(-c2c3ccccc3c(-c3ccc(OCCBr)cc3)c3ccccc23)cc1`, the GI50 in the experiment with M14 is 21 µM (inactive); with U-251 it was 32.3 µM (inactive); with SR, 31.8 µM (inactive); in the experiment on 786-0, 21.9 µM (inactive); with BT-549 it was 30.1 µM (inactive); with COLO 205 it was 31.2 µM (inactive). Also, the GI50 with PC-3 was 27.4 µM (inactive); in the experiment with HL-60, 47.5 µM (inactive); in the experiment on RPMI-8226 it was 31.1 µM (inactive); with LOX IMVI, 16.9 µM (inactive); in the experiment on HCC 2998 it was 44.2 µM (inactive); in the experiment with Malme-3M, 14.7 µM (inactive). The GI50 in the experiment on OVCAR-5 was 27.1 µM (inactive); in the experiment on NCI-H23, 15.6 µM (inactive); in the experiment with T47D it was 35.7 µM (inactive); in the experiment with OVCAR-4, 24.2 µM (inactive); with NCI-H226, 20 µM (inactive); with Hs-578T, 24.3 µM (inactive). The GI50 in the experiment on A498 was 23.2 µM (inactive); in the experiment with SNB-75, 25.1 µM (inactive).

As to `Cc1nn2c(=O)c([N+](=O)[O-])c(/C=C/c3ccccc3)nc2s1`, the GI50 in the experiment with M14 was 6.81 µM (inactive); with U-251, 2.42 µM (inactive); in the experiment on SR, 2.43 µM (inactive); with 786-0, 4.52 µM (inactive); with BT-549 it was 2.37 µM (inactive); in the experiment with COLO 205 it was 5.14 µM (inactive). The GI50 was 4.13 µM (inactive) in the experiment on PC-3; 2.28 µM (inactive) in the experiment on HL-60; 2.43 µM (inactive) with RPMI-8226; 1.57 µM (inactive) with LOX IMVI; 8.13 µM (inactive) in the experiment on HCC 2998; 13.3 µM (inactive) in the experiment with Malme-3M. The GI50 with OVCAR-5 is 4.68 µM (inactive); in the experiment with NCI-H23 it was 11 µM (inactive); in the experiment with T47D it was 3.72 µM (inactive); in the experiment on OVCAR-4 it was 10.5 µM (inactive); in the experiment on NCI-H226 it was 3.07 µM (inactive); with Hs-578T, 7.33 µM (inactive). Besides, the GI50 in the experiment with A498 is 10.4 µM (inactive); with SNB-75, 2.93 µM (inactive).

For `COc1cc(C2c3cc4c(cc3OC3(OC)COC(=O)C23)OCO4)cc(OC)c1OC(C)=O` (stereo not drawn), the GI50 in the experiment with M14 is 1.66 µM (inactive); in the experiment with U-251, 2.13 µM (inactive); in the experiment with SR it was 2.53 µM (inactive); in the experiment with 786-0 it was 1.21 µM (inactive); in the experiment with BT-549, 5 µM (inactive); in the experiment on COLO 205 it was 3.87 µM (inactive). The GI50 is 0.429 µM (active) with PC-3; 1.23 µM (inactive) with HL-60; 1.81 µM (inactive) with RPMI-8226; 0.656 µM (active) in the experiment on LOX IMVI; 2.75 µM (inactive) in the experiment with HCC 2998; > 100 µM (inactive) in the experiment with Malme-3M. In addition, the GI50 was 4.6 µM (inactive) in the experiment on OVCAR-5; 3.27 µM (inactive) in the experiment with NCI-H23; > 100 µM (inactive) in the experiment with T47D; > 57.8 µM (inactive) with OVCAR-4; 1.13 µM (inactive) in the experiment with NCI-H226; 0.54 µM (active) in the experiment with Hs-578T. Further, the figures for the GI50 in the experiment on A498 and in the experiment on SNB-75 were 3.27 µM (inactive) and 0.384 µM (active), respectively.

For `Nc1c2cc3ccc2nc2ccc(cc12)OCCOCCOCCOCCOCCOCCO3`, the GI50 in the experiment with M14, in the experiment on U-251, in the experiment with SR, in the experiment on 786-0, in the experiment on BT-549 and in the experiment on COLO 205 was > 10 µM (inactive) throughout. The GI50 in the experiment on PC-3, with HL-60, in the experiment with RPMI-8226, in the experiment on LOX IMVI, in the experiment with HCC 2998 and in the experiment with Malme-3M was > 10 µM (inactive) in each case. In addition, the GI50 with OVCAR-5, in the experiment on NCI-H23, with T47D, with OVCAR-4, in the experiment on NCI-H226 and in the experiment with Hs-578T was > 10 µM (inactive) throughout. The GI50 in the experiment on A498 and with SNB-75 was > 10 µM (inactive) throughout.

Turning to `COc1cccc(N2C(=O)C3c4[nH]c5ccccc5c4C4CCCC4C3C2=O)c1` (stereo not drawn), the GI50 in the experiment on M14 was 3.06 µM (inactive); with U-251, 4.06 µM (inactive); in the experiment on SR, 1.48 µM (inactive); with 786-0, 2.14 µM (inactive); with BT-549 it was > 10 µM (inactive); in the experiment with COLO 205, > 10 µM (inactive). Also, the GI50 in the experiment with PC-3 is 9.4 µM (inactive); with HL-60, > 10 µM (inactive); with RPMI-8226, > 10 µM (inactive); in the experiment on LOX IMVI it was 5.38 µM (inactive); in the experiment with HCC 2998 it was > 10 µM (inactive); in the experiment with Malme-3M, 2.78 µM (inactive). In addition, the GI50 is > 10 µM (inactive) in the experiment with OVCAR-5; > 10 µM (inactive) in the experiment with NCI-H23; > 10 µM (inactive) in the experiment with T47D; 2.26 µM (inactive) in the experiment with OVCAR-4; 2.57 µM (inactive) in the experiment on NCI-H226; 3.61 µM (inactive) in the experiment on Hs-578T. Besides, the GI50 is 2.17 µM (inactive) in the experiment on A498 and 2.24 µM (inactive) in the experiment on SNB-75.

In the case of `COc1ccc2nc3cc([N+](=O)[O-])ccc3c(NNc3ccc(Cl)cc3)c2c1`, the GI50 in the experiment on M14 was 34.7 µM (inactive); in the experiment with U-251, 21.7 µM (inactive); in the experiment with SR, 12.5 µM (inactive); in the experiment on 786-0 it was 17.9 µM (inactive); in the experiment on BT-549, 29.9 µM (inactive); with COLO 205, 12.6 µM (inactive). For the same compound, the GI50 in the experiment on PC-3 is 24.8 µM (inactive); in the experiment with HL-60, 23.1 µM (inactive); in the experiment on RPMI-8226, 22.8 µM (inactive); with LOX IMVI it was 26.9 µM (inactive); in the experiment on HCC 2998, 8.39 µM (inactive); in the experiment with Malme-3M, 43.2 µM (inactive). Moreover, the GI50 in the experiment with OVCAR-5 was 2.31 µM (inactive); with NCI-H23 it was 45.2 µM (inactive); in the experiment with T47D, 32.5 µM (inactive); in the experiment on OVCAR-4, 38.5 µM (inactive); in the experiment with NCI-H226 it was 1.1 µM (active); with Hs-578T, 29.9 µM (inactive). Further, the GI50 in the experiment on A498 was 0.073 µM (active); in the experiment with SNB-75, 40.1 µM (inactive).

Regarding `COc1ccc(CCN2COc3ccc4ccc(=O)oc4c3C2)cc1OC`, the GI50 with M14 was > 100 µM (inactive); in the experiment with U-251, 88.9 µM (inactive); with SR, 24.3 µM (inactive); with 786-0 it was > 100 µM (inactive); in the experiment with BT-549, > 100 µM (inactive); with COLO 205, > 100 µM (inactive). Besides, the GI50 with PC-3 is > 100 µM (inactive); with HL-60, 19.1 µM (inactive); in the experiment on RPMI-8226, 22.4 µM (inactive); with LOX IMVI, 20.9 µM (inactive); in the experiment with HCC 2998, > 100 µM (inactive); with Malme-3M, > 100 µM (inactive). Further, the GI50 in the experiment with OVCAR-5, in the experiment with NCI-H23, in the experiment with T47D, in the experiment on OVCAR-4, in the experiment with NCI-H226 and with Hs-578T was > 100 µM (inactive) in each case. Moreover, the GI50 with A498 and with SNB-75 was > 100 µM (inactive) each time.

For the compound `N#C[BH2-][n+]1cn(C2CC(OP(=O)(O)OCC3OC(n4cnc5c(=O)[nH]c(N)nc54)CC3O)C(CO)O2)c2nc(N)[nH]c(=O)c21` (stereo not drawn), the GI50 with U-251, in the experiment on SR, with 786-0, in the experiment with BT-549, in the experiment on COLO 205 and with PC-3 was > 100 µM (inactive) throughout. Further, the GI50 was > 100 µM (inactive) in the experiment with HL-60; > 100 µM (inactive) with RPMI-8226; 55.5 µM (inactive) in the experiment with LOX IMVI; > 100 µM (inactive) with HCC 2998; 70.5 µM (inactive) in the experiment with Malme-3M; > 100 µM (inactive) with OVCAR-5. Also, the GI50 with NCI-H23, in the experiment on T47D, with OVCAR-4, in the experiment on NCI-H226, in the experiment with Hs-578T and with A498 was > 100 µM (inactive) each time. In the experiment with SNB-75, the GI50 is > 100 µM (inactive).
